Results from US20240109855A1, “ANTI-QUORUM SENSING, ANTI-BIOFILM, AND INFLAMMATION ATTENUATING COMPOUNDS, COMPOSITIONS, AND METHODS OF USING SAME” (priority 2021, published 2024).
“Also recorded” adds a separate entry of the source. Read-outs that look alike come from different tables or passages of the source.

Tests used:
[1] = tested on: Agrobacterium tumefaciens (KYC55); experiment: Quorum sensing inhibition test with bio-reporter KYC55 (TLC overlay); type: cell-based; conditions: for Degree of QSI of KYC55: Table 1, coumaperine derivatives, 40 mM in ~20 μL acetonitrile dried on TLC plate, overnight, color intensity; for QSI activity against KYC55, in words: running text; on Degree of QSI of KYC55: key: −: no inhibition; +: low inhibition; ++: medium inhibition; +++: strong inhibition; on Degree of quorum sensing inhibition (QSI), KYC55: key: −: no inhibition; +: low inhibition; ++: medium inhibition; +++: strong inhibition
Outline: (§1)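 Compounds (40 mM in acetonitrile, 20 μl) were spotted on TLC and overlaid with soft agar reporter cultures, incubated overnight at 30 °C. CV026 was in LB with 500 nM 3-oxo-C6 (purple pigment), and KYC55 was in AT medium with 5 nM 3-oxo-C8 and 60 μg/ml X-gal (blue). Inhibition zone diameter was measured.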

Staphylococcus aureus = experiment: Diffusion discs test, Staphylococcus aureus; type: cell-based; design: key to Staphylococcus aureus, diameter of growth inhibition: —: no activity; conditions: for Staphylococcus aureus, diameter of growth inhibition: discs with 40 mM of compound in 20 μl solvent
Experimental: (§2) All derivatives were dissolved in acetonitrile to a final concentration of 40 mM. Twenty (20) μl were loaded onto Whatman filter paper discs and dried. Bacillus subtilis, Staphylococcus aureus, and Acinetobacter baumannii were grown in LB (Lenox) O.N. One hundred (100) μl from the starter culture was plated on LB agar (Miller) dishes. Streptococcus sobrinus, and Streptococcus mutans grown in Brain Heary Infusion (BHI, Himedia) O.N. were similarly plated on BHI agar dishes. Discs were laid and incubated O.N. in 37° C. and the diameter of inhibition of bacterial growth was measured.

Bacillus subtilis = experiment: Diffusion discs test, Bacillus subtilis; type: cell-based; design: key: —: no activity; conditions: discs with 40 mM of compound in 20 μl solvent
Experimental: as §2

Streptococcus sobrinus = experiment: Diffusion discs test, Streptococcus sobrinus; type: cell-based; design: key: —: no activity; conditions: discs with 40 mM of compound in 20 μl solvent
Experimental: as §2

Streptococcus mutans = experiment: Diffusion discs test, Streptococcus mutans; type: cell-based; design: key: —: no activity; conditions: discs with 40 mM of compound in 20 μl solvent
Experimental: as §2

[2] = tested on: gram-positive and gram-negative bacteria; experiment: Antibacterial activity, overall statement (diffusion discs test); type: cell-based; conditions: for Antibacterial activity, in words: running text; for Antibacterial: Table 6 summary
Experimental: as §2
The antibacterial activities of derivatives showing QSI are outlined in Table 4. […] Similar to that idea, synthetic derivatives of furanon (product of marine algae) shown in-vivo QSI activity without antibacterial activity followed by immune response of the infected animal. Phenolic compounds decrease QS and virulence in PA01 and Chromobacterium violaceum. There is increasing number of studies, searching for compounds that targeting non-vital processes to combat bacteria.

PA01 = experiment: Diffusion discs test, PA01; type: cell-based, P. aeruginosa; design: key: —: no activity; conditions: discs with 40 mM of compound in 20 μl solvent
Acinetobacter baumannii = experiment: Diffusion discs test, Acinetobacter baumannii; type: cell-based; design: key: —: no activity; conditions: discs with 40 mM of compound in 20 μl solvent
Experimental: as §2

[3] = tested on: Chromobacterium violaceum (CV026); experiment: Quorum sensing inhibition test with bio-reporter CV026 (TLC overlay); type: cell-based; conditions: for Degree of QSI of CV026: Table 1, coumaperine derivatives, 40 mM in ~20 μL acetonitrile dried on TLC plate, overnight, color intensity; for QSI activity against CV026, in words: running text; on Degree of QSI of CV026: key: −: no inhibition; +: low inhibition; ++: medium inhibition; +++: strong inhibition; on Degree of quorum sensing inhibition (QSI), CV026: key: −: no inhibition; +: low inhibition; ++: medium inhibition; +++: strong inhibition
Outline: as §1

in vitro = experiment: in vitro
Experimental: (§3) The human Hodgkin's Lymphoma derived L428 cell line was used as a model. The cells were grown in RPMI Medium 1640 with 10% FBS, 1% Glutamine and pen-strep (all from Biological Industries, Israel). […] Thirty thousand (30,000) cells/well were placed in 96-well plates with the coumaperine derivatives at different concentrations or with vehicle (DMSO) at a final volume of 200 μl. The plates were incubated for 48 hrs. at 37° C. and 5% CO2 followed by the addition of 50 μl of the XTT reagent tetrazolium-formazan, (Biological Industries, Israel) was added for 2 hrs. at 37° C., 5% CO2. In living cells, mitochondria […] the tetrazolium-formazan salt, thereby generating a color absorbing product at 450 nm. Absorbance was measured at 450 nm and 650 nm in an enzyme-linked immunosorbent assay (ELISA) plate reader (Multiskan Spectrum, Version 1.2), and recorded. Absorption values at 650 nm were subtracted from the blank and the 450 nm values. The results were normalized to the control (treated with DMSO).
(§4) Viability was determined in triplicate in two independent tests. The results were normalized to vehicle (DMSO) treated cells, (100% viability). Mean+SD.

L428 cells = experiment: in vitro; conditions: for CC50: read-out: LC50, 48 hrs
Experimental: as §3, §4

NF-kB = experiment: NF-kB-luciferase reporter gene assay in L428 cells; type: cell-based, human; conditions: Table 6 summary; further: key: +: active; −: inactive
Experimental: FIG. 7 includes a vertical bar graph showing a dose response of NF-kB activation according to an NF-kB reporter gene luciferase assay. L428 cells were stably transfected with the NF-kB luciferase reporter gene. The cells were incubated with the compounds at different concentrations for 2 hours. […] The results represent the percentage of NF-kB activation as compared to vehicle (DMSO) treated cells. All samples were normalized to protein concentration. Mean+SD, Two-way ANOVA and Tukey's multiple comparison test. 95% confidence interval (p-values *≤0.0332, **≤0.0021, ***≤0.0002).
L428 cells stable transfectants with the luciferase NF-kB-Luc reporter gene were generated previously described (Ozer et al., 2009), and were maintained in 500 μg/ml of G418 (G418 disulfate salt, Sigma-Aldrich). The cells (5×10^5 /well in triplicate) were incubated for 2 hrs. in 1 ml of medium containing the solvent (DMSO) or different concentrations of the molecules tested. Cells were then harvested, lysed, and monitored by a luciferase reporter assay kit (Promega) according to the manufacturer's instructions. Measurements were carried out using a luminometer (Promega, GLOMAX™ 20/20 Luminometer). Data were normalized to the protein concentration in each lysate as measured by the Bradford method (BioRad) and normalized to the control. Experiments were repeated at least three times.

[4] = tested on: quorum sensing (CV026 and KYC55); experiment: Quorum sensing inhibition, overall statement over the bio-reporter bacteria; type: cell-based; conditions: for QSI: Table 6 summary; for QSI activity overall, in words: running text
Experimental: TLC preparation: all derivatives were dissolved in 100% acetonitrile to a concentration of 40 mM. Then placed 20 μlon the same spot on the TLC and let the solvent evaporate before use. CV026: few colonies were transferred to liquid LB (Lenox) for overnight incubation at 30° C. in a 45 degree in orbital shaker. At the O.D. 0.8 3 ml of the starter was added to preheated soft LB agar containing 500 nM of 3-oxo-C6 (Sigma-Aldrich). The mixture was then loaded on the TLC in a glass plate for O.N. incubation in 30° C. The next day inhibition zone was measured, while QS is taking place bacteria produce purple pigment, and when QS is inhibited no pigment is produced. KYC55 (pJZ372) (pJZ384) (pJZ410): 20 μl from the frozen stock into 25 ml AT media (AT buffer×20: 1.57 M KH2PO4 pH=7.3. AT salts mix×20: 300 mM (NH4)2SO4, 13 mM MgSO4, 1.4 mM CaCl2, 0.4 mM FeSO4·7H2O, 0.26 mM MnSO4·H2O. AT media: 50 ml×20 AT-buffer, 50 ml×20 AT-salts, 10 ml 50% (w/v) glucose, add 890 ml to final volume of 1 liter.) For O.N. at 30° C. in an orbital shaker. Into preheated water agar with 25 ml AT-buffer, and 60 μg/ml X-gal and 5 nM 3-oxo-c8 (both from Sigma-Aldrich) 25 ml of the starter was added. Then, that mixture was loaded on the TLC in glass plate for O.N. incubation in 30° C. The next day the inhibition zone was measured. The bacteria produce blue pigment during QS and when QS is inhibited no pigment is produced. KYC55 (pJZ372) (pJZ384) (pJZ410) preservation in tetracycline (1 μg/ml), spectinomycin (100 μg/ml), gentamicin (100 μg/ml) (all antibiotics from Sigma Aldrich) in AT media O.N. then centrifuged and suspend in 15% glycerol frozen and maintained at −80° C.
All the synthesized compounds were evaluated for quorum sensing inhibition against two bioreporter bacteria strains, Chromobacterium violaceum (CV026) and Agrobacterium tumefaciens (KYC55) and the results are summarized in Table 1.

[5] = Table 2, piperlongumine derivatives

Row | Compound | Degree of QSI of KYC55 [1] | QSI activity against KYC55, in words [1] | Staphylococcus aureus, diameter of growth inhibition (Staphylococcus aureus) | Bacillus subtilis, diameter of growth inhibition (Bacillus subtilis) | Streptococcus sobrinus, diameter of growth inhibition (Streptococcus sobrinus) | Streptococcus mutans, diameter of growth inhibition (Streptococcus mutans) | Antibacterial activity, in words [2] | PA01, diameter of growth inhibition (PA01) | Acinetobacter baumannii, diameter of growth inhibition (Acinetobacter baumannii) | Degree of QSI of CV026 [3] | QSI activity against CV026, in words [3] | CC50 at 48 h (in vitro; human, LC50) | Cytotoxic (L428 cells) | Anti-inflammatory (NF-kB) | QSI [4] | Antibacterial [2] | other results
1 | CSc1ccc(/C=C/C=C/C(=O)N2CCCCC2)cc1 [CP-147, (2E,4E)-5-(4-(methylthio)phenyl)-1-(piperidin-1-yl)penta-2,4-dien-1-one] | − | inactivity; also recorded: does not affect QS | 9 mm | — | — | — | showed antibacterial activity | — | — | + | low activity; also recorded: low QS inhibition effect |  |  |  |  |  | Staphylococcus aureus growth inhibition, in words (Staphylococcus aureus; running text): inhibits Staphylococcus aureus growth
2 | O=C(/C=C/C=C/c1ccc(F)cc1)N1CCCCC1 [CP-154, (2E,4E)-5-(4-fluorophenyl)-1-(piperidin-1-yl)penta-2,4-dien-1-one] | +++ | highly active | 11 mm | 7 mm | 9 mm | — | showed antibacterial activity | — | — | +++ | highly active | 46.8 µM | + | + | + | + | Cytotoxic activity, in words (L428 cells): cytotoxic; QSI activity overall, in words [4]: anti QS activity
3 | CC(=O)Oc1ccc(/C=C/C=C/C(=O)N2CCCCC2)cc1 [CP-158, 4-((1E,3E)-5-oxo-5-(piperidin-1-yl)penta-1,3-dienyl)phenyl acetate] | ++ |  |  |  |  |  | did not show antibiotic activity |  |  | +++ | more effective against CV026 than KYC55 | 285 µM | + | + | + | − | Cytotoxic activity, in words (L428 cells): not cytotoxic; QSI activity overall, in words [4]: anti QS activity
4 | O=C(/C=C/C(=O)N1CCCCC1)c1ccc(F)c(F)c1 [CP-287, (E)-3-(benzoyl 3,4-difluoro)-1-(piperidin-1-yl)prop-2-en-1-one] |  |  | — | — | 9 mm | — | showed antibacterial activity | — | — |  |  |  | + | + | + | − | CC50 (L428 cells; L428 cells): 284 µM; CC50 (L428 cells; Table 5, L428 cells): 284 µM
5 | O=C(/C=C/C1CCCCC1)N1CCCCC1 [CP-295, (E)-cyclohexyl-1-(piperidin-1-yl)prop-2-en-1-one] | ++ | moderate activity | — | — | 12 mm | — | showed antibacterial activity | — | — | ++ | moderate activity | 408 µM |  |  |  |  | 
6 | COc1cc(CCC(=O)CC(=O)CCc2ccc(O)c(OC)c2)ccc1O [HCU, Tetrahydrocurcumin] |  |  |  |  |  |  |  |  |  |  |  |  |  | + | + | − | Degree of quorum sensing inhibition (QSI), KYC55 ([1]; Table 3, curcumin derivatives): +++; CC50 at 48 h (in vitro): 102 µM; Cytotoxic activity, in words (L428 cells; L428 cells): cytotoxic; Cytotoxic (L428 cells; Table 6 summary): +; Degree of quorum sensing inhibition (QSI), CV026 ([3]; Table 3, curcumin derivatives): +
7 | O=C1C=CCCN1C(=O)/C=C/c1cc(O)c(O)c(O)c1 [PL-25, trihydroxy piperlongumine] |  | moderate inhibition | 9 mm | — | — | — | showed antibacterial activity | — | — |  | inactive | 46.3 µM |  |  |  |  | Degree of quorum sensing inhibition (QSI), KYC55 [1, 5]: ++; Degree of quorum sensing inhibition (QSI), CV026 [3, 5]: −
